{
  "source": "patent US6113907A",
  "about": "“Pharmaceutical grade St. John's Wort” (priority 1997, dated 2000)",
  "key": {"[1]": {"assay": "stability", "assay_type": "physicochemical", "conditions": "our data", "excerpt": "Some botanicals, such as St. John's Wort, are both temperature and light sensitive. For this type of botanical the material should be dry packed with a refrigerant or shipped under refrigeration and protected from light and air. […] Stability (in absence of air) was increased to six months in a preparation extracted with ethanol.\nPhloroglucinola include hyperforin (prenylated derivative of phloroglucinol), adhyperforin (similar to the bitter principle of hops, adhumulone)."}, "[2]": {"tested_on": "GABAA receptor", "assay": "GABAA agonist site binding assay, [3H]-GABA, bovine cerebellar membranes", "conditions": "10^-4 M", "procedure": "The reference literature compounds for this assay include diazepam and muscimol (Sigma Chemical Company).\nThe reaction is terminated by rapid vacuum filtration onto glass fiber filters. Radioactivity trapped onto the filters is determined and compared to control values in order to ascertain any interactions of test compound with the GABAA receptor."}, "[3]": {"target": "T1, muscarinic M1 receptor (Bos taurus, UniProt F1N5C5)", "T1 construct": "Using receptors derived from bovine striatal membranes; from tissue; host or cells: bovine striatal membranes", "T1 sequence (F1N5C5 1-460)": "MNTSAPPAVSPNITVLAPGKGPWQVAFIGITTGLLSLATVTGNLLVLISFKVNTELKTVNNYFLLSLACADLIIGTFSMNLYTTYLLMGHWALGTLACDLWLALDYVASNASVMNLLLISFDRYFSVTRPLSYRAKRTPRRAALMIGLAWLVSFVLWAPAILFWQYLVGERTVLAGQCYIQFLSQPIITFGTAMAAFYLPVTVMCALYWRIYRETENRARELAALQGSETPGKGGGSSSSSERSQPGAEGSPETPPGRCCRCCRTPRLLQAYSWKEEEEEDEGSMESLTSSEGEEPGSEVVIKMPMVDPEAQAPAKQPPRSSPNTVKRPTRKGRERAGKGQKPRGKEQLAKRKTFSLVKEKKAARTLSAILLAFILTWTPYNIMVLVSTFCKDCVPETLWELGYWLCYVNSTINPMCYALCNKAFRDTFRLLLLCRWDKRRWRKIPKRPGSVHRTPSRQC", "assay": "muscarinic M1 binding, [3H]-Pirenzepine, bovine striatal membranes", "conditions": "read-out: MuscM1 Binding % inhibition (PharmaPrint range)"}, "[4]": {"tested_on": "benzodiazepine receptor (BDZ)", "assay": "benzodiazepine receptor (BDZ), [3H] PK11195, rat kidney membranes", "assay_type": "binding", "conditions": "10^-4; 60 min, 100 µM", "procedure": "(§1) Fourteen additional bioassays were preformed on either extracts, fractions or reference compounds for this botanical. To measure inhibition of [^3 H] PK11195 to the benzodiazepine receptor (BDZ) a partially purified receptor preparation was made from rat kidney membranes. The final radioactive ligand concentration was 1 nM and non-specific binding was measured using 200 nM cold PK11195. The substances, receptor and ligand were reacted in 50 mM Tris-HCL (pH 7.7) at 0-4° C. for 60 minutes. The reaction was terminated by rapid filtration of the samples through glass fiber filters. […] The inhibition of [^3 H] pinrenzepine to the muscarinic M1 receptor (M1) by the substances was measured using a partially purified receptor from bovine striatal membranes. The final hot ligand concentration was 1 nM and non-specific binding was determined in the presence of 100 nM atropine. […] The reactions were terminated by rapid vacuum filtration of the reaction mixture through glass fiber filters. […] To assay for biological activity for the muscarinic receptor for the central nervous system, receptor was partially purified from rat cortical membranes. […] Non-specific binding was determined in the presence of 100 nM atropine. […] Non-specific binding was determined using 1 mM NMDA. […] Non-specific binding was determined using 100 μM AMPA."}, "[5]": {"tested_on": "Nitric oxide synthetase", "assay": "nitric oxide synthetase binding (NOS), [3H] NOARG, rat brain membranes", "conditions": "10^-4; 60 min, 100 µM", "procedure": "The inhibition of MAOA enzymatic activity (MAOA) was determined using rat liver mitochondrial membranes as a partially purified enzyme source. […] The reaction involves the conversion of the substrate to [^14 C] 5-hydroxyl indoleacetaldehyde+NH4^+. In brief, the enzyme is preincubated with the substances and the subtype specific blocker deprenyl (at 300 nM) for 60 minutes at 37° C. in 100 mM KPO4 (pH 7.2). Substrate is added and incubated for an additional 10 minutes. The reaction is terminated by the addition of 0.5 ml of 2M citric acid. […] Nitric oxide synthetase activity was measured using a binding assay (NOS). The receptors were made by partial purification of material from rat brain membranes. The radioligand used was [^3 H] L-N^G -Nitro-Arginine (NOARG) at a final concentration of 5 nM. Non-specific binding was determined using 100 μM of NOARG. The assay reactions were carried out in 50 mM Tris-HCl (pH 7.4) for 60 minutes at 25° C."}, "[6]": {"tested_on": "adenosine receptor", "assay": "adenosine receptor non-selective (ADNS), [3H] NECA, bovine striatal membranes", "assay_type": "binding", "procedure": "To determine the inhibitory activity of the substances for the dopamine receptor (dp) the following assay was preformed. A partial receptor preparation was prepared from bovine striatal membranes using [^3 H] spiperone as the ligand at a final concentration of 0.3 nM. To determine non-specific binding cold spiperone was tested at 1 μM. The reactions were carried out in 50 mM Tris-HCl (pH 7.7) containing 120 mM NaCl, 5 mM KCl, 2 mM CaCl2 and 1 mM MgCl2 at 37° C. for 60 minutes. […] The inhibitory properties of the substances for binding of ligand to the adenosine receptor (ADNS) was measured using a partially purified receptor preparation made from bovine striatal membranes. The radioligand used was [^3 H] 5'-N-ethylcarboxyamidoadenosine (NECA) at a final ligand concentration of 4 nM. Non-specific binding was determined in the presence of 10 μM NECA. The reactions were carried out in 50 mM Tris-HCL (pH 7.7) for 60 minutes at 25° C. […] To measure the inhibitory activity of the substances for the opiate receptor (Opiate) receptor was partially purified from rat forebrains. [^3 H] naloxone at 1 nM as the ligand used. Non-specific binding was determined in the presence of 1 μM of naloxone. The assays were carried out in 50 mM Tris-HCl (pH 7.4) at 25° C. for 90 minutes. […] The neuronal nicotinic receptor (Nicotinic Neuronal) was assayed using receptors partially purified from rat cortical membranes. The radioligand used was [^3 H] N-methylcarbamylcholine iodide at a final ligand concentration of 5 nM. Non-specific binding was determined in the presence of 1 μM nicotine sulfate. The assay reactions were carried out in 50 mM Tris-HCl (pH 7.4) containing 120 mM NaCl, 5 mM KCl, 2 mM CaCl2, 1 mM MgCl2, and 3 μM atropine sulfate at 4° C. for 60 minutes. […] To determine how the substances inhibit the corticotropin releasing factor (CRF) partially purified receptor from rat cortical membranes was used as the receptor preparation. […] Tyr-° CRF at a final ligand concentration of 0.1 nM. Non-specific binding was determined in the presence of 1 μM Tyr-° CRF. The reactions were carried out in 50 mM HEPES containing 10 mM MgCl2, 2 mM EGTA, 0.12 TIU/ml aprotinin and 0.3% BSA at 25° C. for 120 minutes. The reaction is terminated by centrifugation in a Sorvall centrifuge for 15 minutes at 4° C."}, "[7]": {"tested_on": "muscarinic receptor for the central nervous system", "assay": "muscarinic receptor for the central nervous system (M1 Central), [3H] QNB, rat cortical membranes", "assay_type": "binding", "conditions": "10^-4; 100 µM", "procedure": "as §1"}, "[8]": {"tested_on": "equine infectious anemia virus", "conditions": "cited from earlier work"}, "[9]": {"tested_on": "glioma cells", "conditions": "tissue culture; cited from earlier work"}},
  "data": [
    {"smiles": "Cc1cc(O)c2c(=O)c3c(O)cc(O)c4c5c(O)cc(O)c6c(=O)c7c(O)cc(C)c8c1c2c(c34)c(c78)c65", "note": "[Hypericin, hypericin]", "values": [
      {"measurement": "stability in solution", "setting": "[1]", "result": "unstable in solution"},
      {"measurement": "GABAA % inhibition (PharmaPrint range)", "setting": "[2]", "result": "30 ± 15", "unit": "%"},
      {"measurement": "inhibition at 100 µM", "setting": "[3]", "result": "80 ± 20", "unit": "%"},
      {"measurement": "BDZ", "setting": "[4]", "result": 33, "unit": "%"},
      {"measurement": "NOS", "setting": "[5]", "result": 48, "unit": "%"},
      {"measurement": "ADNS", "setting": "[6]; 10^-4, 60 min, 100 µM", "result": 70, "unit": "%"},
      {"measurement": "AD,NS % inhibition (PharmaPrint range)", "setting": "[6]; 10^-4 M", "result": "70 ± 20", "unit": "%"},
      {"measurement": "M1 Central", "setting": "[7]", "result": 55, "unit": "%"},
      {"measurement": "activity against equine infectious anemia virus", "setting": "[8]", "result": "Activity has also been reported"},
      {"measurement": "growth of glioma cells", "setting": "[9]", "result": "inhibit the growth of glioma cells"}
    ]}
  ]
}
